Earlier results in US20180094248A1, “Necroptosis Signaling as a Therapeutic Target for Alzheimer's Disease” (Arizona Board of Regents on behalf of Arizona State …, priority 2016, published 2018).

Experiments:
[1] = molecular target: RIPK3 (Homo sapiens, UniProt Q9Y572); conditions: Kaiser et al., 2013, J. Biol. Chem. 288:31268; cited from earlier work
[2] = molecular target: T1, MLKL (Homo sapiens, UniProt Q8NB16); conditions: Sun et al., 2012, Cell 148:213-27; cited from earlier work
T1 sequence (Q8NB16 1-471): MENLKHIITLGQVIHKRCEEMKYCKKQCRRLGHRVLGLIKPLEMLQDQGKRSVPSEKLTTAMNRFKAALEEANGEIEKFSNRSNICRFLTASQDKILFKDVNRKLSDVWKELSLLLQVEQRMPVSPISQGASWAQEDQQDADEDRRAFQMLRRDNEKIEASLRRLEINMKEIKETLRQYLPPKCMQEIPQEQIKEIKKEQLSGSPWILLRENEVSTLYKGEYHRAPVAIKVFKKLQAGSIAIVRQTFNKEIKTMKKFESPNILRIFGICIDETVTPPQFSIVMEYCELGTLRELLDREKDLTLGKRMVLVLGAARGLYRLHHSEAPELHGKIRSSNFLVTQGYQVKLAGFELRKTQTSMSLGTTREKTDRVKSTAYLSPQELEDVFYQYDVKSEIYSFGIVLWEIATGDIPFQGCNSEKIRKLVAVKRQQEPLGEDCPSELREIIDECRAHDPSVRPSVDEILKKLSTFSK

Sequence of RIPK3 (Q9Y572 whole entry): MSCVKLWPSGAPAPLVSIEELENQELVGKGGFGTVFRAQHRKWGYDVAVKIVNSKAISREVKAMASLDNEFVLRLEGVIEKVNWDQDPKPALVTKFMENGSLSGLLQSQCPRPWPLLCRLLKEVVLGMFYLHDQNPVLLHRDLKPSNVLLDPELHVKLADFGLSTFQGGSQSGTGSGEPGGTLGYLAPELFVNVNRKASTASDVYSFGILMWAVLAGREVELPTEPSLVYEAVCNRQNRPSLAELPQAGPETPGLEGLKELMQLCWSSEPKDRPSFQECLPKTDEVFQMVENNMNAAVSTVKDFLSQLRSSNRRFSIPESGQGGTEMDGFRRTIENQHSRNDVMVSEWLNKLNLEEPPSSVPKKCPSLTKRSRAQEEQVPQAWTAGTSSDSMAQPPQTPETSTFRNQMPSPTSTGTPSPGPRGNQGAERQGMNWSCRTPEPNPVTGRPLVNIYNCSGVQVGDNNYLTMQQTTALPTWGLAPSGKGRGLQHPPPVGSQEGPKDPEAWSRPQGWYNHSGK

SMILES | inhibition of RIPK3 (selectivity) [1] | inhibition of MLKL (selectivity) [2]
CC(C)S(=O)(=O)c1ccc2nccc(Nc3ccc4scnc4c3)c2c1 [GSK'872, N-(6-(Isopropylsulfonyl)quinolin-4-yl)benzo[d]thiazol-5-amine] | selectively inhibits RIPK3 | –
COc1nccnc1NS(=O)(=O)c1ccc(NC(=O)/C=C/c2ccc([N+](=O)[O-])s2)cc1 [necrosulfonamide, (E)-N-[4-[[(3-Methoxy-2-pyrazinyl)amino]sulfonyl]phenyl]-3-(5-nitro-2-thienyl)-2-propenamide] | – | selectively inhibits MLKL
